Results reported in patent US9428514B2, “Bromodomain inhibitors” (AbbVie Inc., priority 2013, dated 2016).

Tested on: breast cancer cell line MX-1
Test: MX-1 cell line proliferation assay (3-day, Cell Titer Glo)
Format: cell-based
Conditions: Homo sapiens, MX1, MX-1 cells, 72 hours, read-out: Cellular proliferation: EC50
Procedure: The impact of compounds of the Examples on cancer cell proliferation was determined using the breast cancer cell line MX-1 (ATCC) in a 3-day proliferation assay. MX-1 cells were maintained in RPMI supplemented with 10% FBS at 37° C. and an atmosphere of 5% CO2. For compound testing, MX-1 cells were plated in 96-well black bottom plates at a density of 5000 cells/well in 90 μL of culture media and incubated at 37° overnight to allow cell adhesion and spreading. Compound dilution series were prepared in DMSO via a 3-fold serial dilution from 3 mM to […]. The DMSO dilution series were then diluted 1:100 in phosphate buffered saline, and 10 μL of the resulted solution were added to the appropriate wells of the MX-1 cell plate. The final compound concentrations in the wells were 3, 1, 0.3, 0.1, 0.03, 0.01, 0.003, 0.001, 0.0003, 0.0001, and 0.00003 μM.
Luminescence readings from the Cell Titer Glo assay were normalized to the DMSO treated cells and analyzed using the GraphPad Prism software with sigmoidal curve fitting to obtain EC50s. The minimum significant ratio (MSR) was determined to evaluate assay reproducibility (Eastwood et al., (2006) J Biomol Screen, 11: 253-261). The overall MSR was determined to be 2.1 and a moving MSR (last six run MSR overtime) has been <2. The EC50 values are reported in Table 1 for the indicated compounds.

Point of comparison: `CCOc1cc(=O)n(C)cc1-c1cc(NC(=O)CCc2ccccc2)ccc1Oc1ccc(F)cc1F` [Example 41, N-[4-(2,4-difluorophenoxy)-3-(4-ethoxy-1-methyl-6-oxo-1,6-dihydropyridin-3-yl)phenyl]-3-phenylpropanamide], EC50 398 nM. Against it:
- CCOc1cc(=O)n(C)cc1-c1cc(NC(=O)COc2ccc(C)cc2)ccc1Oc1ccc(F)cc1F [Example 33, N-[4-(2,4-difluorophenoxy)-3-(4-ethoxy-1-methyl-6-oxo-1,6-dihydropyridin-3-yl)phenyl]-2-(4-methylphenoxy)acetamide] — within 1.5-fold, 464 nM
- CCOc1cc(=O)n(C)cc1-c1cc(NC(=O)COCc2ccccc2)ccc1Oc1ccc(F)cc1F [Example 35, 2-(benzyloxy)-N-[4-(2,4-difluorophenoxy)-3-(4-ethoxy-1-methyl-6-oxo-1,6-dihydropyridin-3-yl)phenyl]acetamide] — within 1.5-fold, 375 nM
- CCOc1cc(=O)n(C)cc1-c1cc(NC(=O)Cc2noc3ccccc23)ccc1Oc1ccc(F)cc1F [Example 36, 2-(1,2-benzoxazol-3-yl)-N-[4-(2,4-difluorophenoxy)-3-(4-ethoxy-1-methyl-6-oxo-1,6-dihydropyridin-3-yl)phenyl]acetamide] — within 1.5-fold, 476 nM
- CCOc1cc(=O)n(C)cc1-c1cc(NC(=O)Cc2ccc(Oc3ccccc3)cc2)ccc1Oc1ccc(F)cc1F [Example 37, N-[4-(2,4-difluorophenoxy)-3-(4-ethoxy-1-methyl-6-oxo-1,6-dihydropyridin-3-yl)phenyl]-2-(4-phenoxyphenyl)acetamide] — 3.6-fold higher, 1440 nM
- CCOc1cc(=O)n(C)cc1-c1cc(NC(=O)CCCc2ccccc2)ccc1Oc1ccc(F)cc1F [Example 38, N-[4-(2,4-difluorophenoxy)-3-(4-ethoxy-1-methyl-6-oxo-1,6-dihydropyridin-3-yl)phenyl]-4-phenylbutanamide] — 2-fold higher, 779 nM
- CCOc1cc(=O)n(C)cc1-c1cc(NC(=O)Cc2ccc3ccccc3c2)ccc1Oc1ccc(F)cc1F [Example 39, N-[4-(2,4-difluorophenoxy)-3-(4-ethoxy-1-methyl-6-oxo-1,6-dihydropyridin-3-yl)phenyl]-2-(naphthalen-2-yl)acetamide] — within 1.5-fold, 595 nM
- CCOc1cc(=O)n(C)cc1-c1cc(NC(=O)Cc2ccc(-c3ccccc3)cc2)ccc1Oc1ccc(F)cc1F [Example 42, 2-(biphenyl-4-yl)-N-[4-(2,4-difluorophenoxy)-3-(4-ethoxy-1-methyl-6-oxo-1,6-dihydropyridin-3-yl)phenyl]acetamide] — 1.7-fold higher, 678 nM
- CCOc1cc(=O)n(C)cc1-c1cc(NC(=O)Cc2ccc(OCc3ccccc3)cc2)ccc1Oc1ccc(F)cc1F [Example 45, 2-[4-(benzyloxy)phenyl]-N-[4-(2,4-difluorophenoxy)-3-(4-ethoxy-1-methyl-6-oxo-1,6-dihydropyridin-3-yl)phenyl]acetamide] — 2.5-fold higher, 981 nM
- CCOc1cc(=O)n(C)cc1-c1cc(NC(=O)Cc2ccccc2OC)ccc1Oc1ccc(F)cc1F [Example 46, N-[4-(2,4-difluorophenoxy)-3-(4-ethoxy-1-methyl-6-oxo-1,6-dihydropyridin-3-yl)phenyl]-2-(2-methoxyphenyl)acetamide] — within 1.5-fold, 449 nM
- CCOc1cc(=O)n(C)cc1-c1cc(NCc2ccccc2C#N)ccc1Oc1ccc(F)cc1F [Example 57, 2-({[4-(2,4-difluorophenoxy)-3-(4-ethoxy-1-methyl-6-oxo-1,6-dihydropyridin-3-yl)phenyl]amino}methyl)benzonitrile] — 1.8-fold higher, 712 nM
- CCOc1cc(=O)n(C)cc1-c1cc(NCc2ccc(F)cc2)ccc1Oc1ccc(F)cc1F [Example 64, 5-{2-(2,4-difluorophenoxy)-5-[(4-fluorobenzyl)amino]phenyl}-4-ethoxy-1-methylpyridin-2(1H)-one] — within 1.5-fold, 508 nM
- CCOc1cc(=O)n(C)cc1-c1cc(N(CC2CC2)S(=O)(=O)Cc2cc(F)ccc2Cl)ccc1Oc1ccc(F)cc1F [Example 66, 1-(2-chloro-5-fluorophenyl)-N-(cyclopropylmethyl)-N-[4-(2,4-difluorophenoxy)-3-(4-ethoxy-1-methyl-6-oxo-1,6-dihydropyridin-3-yl)phenyl]methanesulfonamide] — higher, > 1000 nM
- CCOc1cc(=O)n(C)cc1-c1cc(N(CC2CC2)C(=O)Cc2cc(F)ccc2Cl)ccc1Oc1ccc(F)cc1F [Example 67, 2-(2-chloro-5-fluorophenyl)-N-(cyclopropylmethyl)-N-[4-(2,4-difluorophenoxy)-3-(4-ethoxy-1-methyl-6-oxo-1,6-dihydropyridin-3-yl)phenyl]acetamide] — higher, > 1000 nM
- CCOc1cc(=O)n(C)cc1-c1cc(NC(=O)C(C)c2cc(F)ccc2Cl)ccc1Oc1ccc(F)cc1F (stereo not shown) [Example 70, 2-(2-chloro-5-fluorophenyl)-N-[4-(2,4-difluorophenoxy)-3-(4-ethoxy-1-methyl-6-oxo-1,6-dihydropyridin-3-yl)phenyl]propanamide] — higher, > 1000 nM
- CCOc1cc(=O)n(C)cc1-c1cc(N(C)C(=O)Cc2cc(F)ccc2Cl)ccc1Oc1ccc(F)cc1F [Example 71, 2-(2-chloro-5-fluorophenyl)-N-[4-(2,4-difluorophenoxy)-3-(4-ethoxy-1-methyl-6-oxo-1,6-dihydropyridin-3-yl)phenyl]-N-methylacetamide] — higher, > 1000 nM
- CCOc1cc(=O)n(C)cc1-c1cc(N(CC2CC2)S(=O)(=O)CC)ccc1Oc1ccc(F)cc1F [Example 72, N-(cyclopropylmethyl)-N-[4-(2,4-difluorophenoxy)-3-(4-ethoxy-1-methyl-6-oxo-1,6-dihydropyridin-3-yl)phenyl]ethanesulfonamide] — 1.7-fold lower, 233 nM
- CCOc1cc(=O)n(C)cc1-c1cc(N(Cc2ccccc2)S(=O)(=O)CC)ccc1Oc1ccc(F)cc1F [Example 73, N-benzyl-N-[4-(2,4-difluorophenoxy)-3-(4-ethoxy-1-methyl-6-oxo-1,6-dihydropyridin-3-yl)phenyl]ethanesulfonamide] — higher, > 1000 nM
- CCOc1cc(=O)n(C)cc1-c1cc(N(Cc2ccccc2Cl)S(=O)(=O)CC)ccc1Oc1ccc(F)cc1F [Example 74, N-(2-chlorobenzyl)-N-[4-(2,4-difluorophenoxy)-3-(4-ethoxy-1-methyl-6-oxo-1,6-dihydropyridin-3-yl)phenyl]ethanesulfonamide] — within 1.5-fold, 464 nM
- CCOc1cc(=O)n(C)cc1-c1cc(N(CCc2ccccc2)S(=O)(=O)CC)ccc1Oc1ccc(F)cc1F [Example 75, N-[4-(2,4-difluorophenoxy)-3-(4-ethoxy-1-methyl-6-oxo-1,6-dihydropyridin-3-yl)phenyl]-N-(2-phenylethyl)ethanesulfonamide] — 1.5-fold higher, 614 nM
- CCOc1cc(=O)n(C)cc1-c1cc(N(CC2CC2)S(=O)(=O)Cc2ccccc2)ccc1Oc1ccc(F)cc1F [Example 76, N-(cyclopropylmethyl)-N-[4-(2,4-difluorophenoxy)-3-(4-ethoxy-1-methyl-6-oxo-1,6-dihydropyridin-3-yl)phenyl]-1-phenylmethanesulfonamide] — higher, > 1000 nM
- CCOc1cc(=O)n(C)cc1-c1cc(N(Cc2ccccc2)S(=O)(=O)Cc2ccccc2)ccc1Oc1ccc(F)cc1F [Example 77, N-benzyl-N-[4-(2,4-difluorophenoxy)-3-(4-ethoxy-1-methyl-6-oxo-1,6-dihydropyridin-3-yl)phenyl]-1-phenylmethanesulfonamide] — higher, > 1000 nM
- CCOc1cc(=O)n(C)cc1-c1cc(N(Cc2ccccc2Cl)S(=O)(=O)Cc2ccccc2)ccc1Oc1ccc(F)cc1F [Example 78, N-(2-chlorobenzyl)-N-[4-(2,4-difluorophenoxy)-3-(4-ethoxy-1-methyl-6-oxo-1,6-dihydropyridin-3-yl)phenyl]-1-phenylmethanesulfonamide] — higher, > 1000 nM
- CCOc1cc(=O)n(C)cc1-c1cc(N(CCc2ccccc2)S(=O)(=O)Cc2ccccc2)ccc1Oc1ccc(F)cc1F [Example 79, N-[4-(2,4-difluorophenoxy)-3-(4-ethoxy-1-methyl-6-oxo-1,6-dihydropyridin-3-yl)phenyl]-1-phenyl-N-(2-phenylethyl)methanesulfonamide] — higher, > 1000 nM
- CCOc1cc(=O)n(C)cc1-c1cc(N(CCc2ccccc2Cl)S(=O)(=O)CC)ccc1Oc1ccc(F)cc1F [Example 80, N-[2-(2-chlorophenyl)ethyl]-N-[4-(2,4-difluorophenoxy)-3-(4-ethoxy-1-methyl-6-oxo-1,6-dihydropyridin-3-yl)phenyl]ethanesulfonamide] — higher, > 1000 nM
- CCOc1cc(=O)n(C)cc1-c1cc(NC(=O)Cn2ccc(-c3ccccc3)n2)ccc1Oc1ccc(F)cc1F [Example 81, N-[4-(2,4-difluorophenoxy)-3-(4-ethoxy-1-methyl-6-oxo-1,6-dihydropyridin-3-yl)phenyl]-2-(3-phenyl-1H-pyrazol-1-yl)acetamide] — higher, > 1000 nM
- CCOc1cc(=O)n(C)cc1-c1cc(NC(=O)Cc2cc(Cl)ccc2F)ccc1Oc1ccc(F)cc1F [Example 82, 2-(5-chloro-2-fluorophenyl)-N-[4-(2,4-difluorophenoxy)-3-(4-ethoxy-1-methyl-6-oxo-1,6-dihydropyridin-3-yl)phenyl]acetamide] — higher, > 1000 nM
- CCOc1cc(=O)n(C)cc1-c1cc(NC(=O)Cc2csc(C)n2)ccc1Oc1ccc(F)cc1F [Example 83, N-[4-(2,4-difluorophenoxy)-3-(4-ethoxy-1-methyl-6-oxo-1,6-dihydropyridin-3-yl)phenyl]-2-(2-methyl-1,3-thiazol-4-yl)acetamide] — within 1.5-fold, 304 nM
